The results in this text go back to PubChem BioAssay (NCI).

Test systems include M14 melanoma; LOX IMVI melanoma; NCI/ADR-RES ovarian; SF-539 CNS; 786-0 renal; COLO 205 colon; A498 renal; HCC-2998 colon; SW-620 colon; NCI-H460 lung.
What all share (assay): growth of human tumour cells (NCI), 48 h

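Each compound was tested at five concentrations against cells in 96-well plates for 48 hours. GI50 is the concentration that inhibits growth by half. The concentration for full growth arrest is given as TGI.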

Take `C=CC(=O)N1CCN(c2nc(OC[C@@H]3CCCN3C)nc3c(F)c(-c4nc(N)cc(C)c4C(F)(F)F)c(Cl)cc23)[C@@H](C)C1`: the GI50 in the assay with M14 melanoma was 1.85 µM; with LOX IMVI melanoma, 1.6 µM; in the assay with NCI/ADR-RES ovarian, 12.8 µM; in the assay with SF-539 CNS, 1.73 µM; in the assay with 786-0 renal it was 3.6 µM; in the assay with COLO 205 colon, 1.86 µM. Besides, the GI50 with A498 renal is 5.34 µM; in the assay with HCC-2998 colon, 1.25 µM; in the assay on SW-620 colon it was 1.95 µM; in the assay on NCI-H460 lung, 2.29 µM. In addition, the TGI with M14 melanoma was found to be 3.57 µM; in the assay on LOX IMVI melanoma, 3.02 µM; in the assay with NCI/ADR-RES ovarian, 27.8 µM; in the assay with SF-539 CNS it was 3.51 µM; with 786-0 renal, 15.3 µM; in the assay with COLO 205 colon, 3.5 µM. Further, the TGI in the assay on A498 renal worked out at 19.3 µM; with HCC-2998 colon, 2.57 µM; with SW-620 colon, 3.71 µM; with NCI-H460 lung, 5.39 µM.
In the case of `O=C(/C=C/c1cccc(Cl)c1)c1ccccc1`, the GI50 was 3.78 µM in the assay on M14 melanoma; 3.06 µM in the assay with LOX IMVI melanoma; 16.3 µM in the assay with NCI/ADR-RES ovarian; 13.6 µM with SF-539 CNS; 10.6 µM in the assay on 786-0 renal; 16.8 µM in the assay on COLO 205 colon. Further, the GI50 in the assay on A498 renal was 10.2 µM; in the assay on HCC-2998 colon, 13 µM; in the assay with SW-620 colon, 1.47 µM; in the assay on NCI-H460 lung, 4.86 µM. For the same compound, the TGI with M14 melanoma was determined as 13.5 µM; in the assay with LOX IMVI melanoma, 10.8 µM; in the assay with NCI/ADR-RES ovarian, 49.8 µM; in the assay with SF-539 CNS, 28.8 µM; in the assay on 786-0 renal, 22.8 µM; in the assay with COLO 205 colon, 31.7 µM. The TGI in the assay with A498 renal is 21.9 µM; in the assay with HCC-2998 colon it was 26.7 µM; in the assay on SW-620 colon, 2.97 µM; in the assay on NCI-H460 lung, 18 µM.
For `Cc1cc(N)c2cc(NC(=O)/C=C\c3ccccc3Cl)ccc2n1`, the GI50 with M14 melanoma is 0.748 µM; with LOX IMVI melanoma it was 0.212 µM; in the assay on NCI/ADR-RES ovarian, over 24.2 µM; in the assay with SF-539 CNS it was 1.69 µM; with 786-0 renal, 0.924 µM; in the assay with COLO 205 colon it was 0.266 µM. Also, the GI50 is 1.5 µM in the assay with A498 renal, 0.485 µM with HCC-2998 colon, 0.214 µM in the assay on SW-620 colon and 1.19 µM in the assay on NCI-H460 lung. Besides, the TGI in the assay on M14 melanoma is 2.02 µM; with LOX IMVI melanoma it was 0.447 µM; in the assay with NCI/ADR-RES ovarian it was over 100 µM; with SF-539 CNS it was 3.07 µM; in the assay with 786-0 renal it was 2.42 µM; in the assay with COLO 205 colon it was 0.597 µM. Further, the TGI in the assay with A498 renal turned out to be 2.95 µM; with HCC-2998 colon, 1.74 µM; in the assay on SW-620 colon, 0.478 µM; in the assay on NCI-H460 lung, 2.7 µM.
`O=C(Nc1cccc2[nH]c(C(F)(F)F)nc12)c1ccc(Br)cc1F`: the GI50 in the assay on M14 melanoma was 3.83 µM; with LOX IMVI melanoma, 3.78 µM; in the assay on NCI/ADR-RES ovarian it was 3.35 µM; in the assay on SF-539 CNS, 3.26 µM; in the assay on 786-0 renal, 4.05 µM; in the assay on COLO 205 colon, 2.63 µM. The GI50 in the assay on A498 renal is 2 µM; in the assay with HCC-2998 colon, 4.8 µM; in the assay on SW-620 colon, 3.38 µM; in the assay on NCI-H460 lung it was 3.45 µM. The TGI in the assay with M14 melanoma was 14.5 µM; with LOX IMVI melanoma, 12.5 µM; in the assay on NCI/ADR-RES ovarian it was 12.2 µM; in the assay with SF-539 CNS, 11.6 µM; in the assay with 786-0 renal, 15.1 µM; in the assay with COLO 205 colon, 6.33 µM. The TGI in the assay on A498 renal was 5.57 µM; in the assay on HCC-2998 colon, 16 µM; with SW-620 colon, 13.2 µM; with NCI-H460 lung it was 12.4 µM.
In the case of `COc1cccc2c1C(=O)c1c(O)c3c(c(O)c1C2=O)C[C@@](O)(C(=O)CO)C[C@@H]3OC1CC2C(OCN2CN2COC3C(C)OC(O[C@H]4C[C@](O)(C(=O)CO)Cc5c(O)c6c(c(O)c54)C(=O)c4c(OC)cccc4C6=O)CC32)C(C)O1` (stereo not given in full), the GI50 in the assay on M14 melanoma is 0.0067 µM; in the assay with LOX IMVI melanoma it was 0.002 µM; with NCI/ADR-RES ovarian it was 0.0187 µM; with SF-539 CNS, 0.0112 µM; in the assay on 786-0 renal it was 0.00274 µM; in the assay on COLO 205 colon, 0.00664 µM. Besides, the GI50 was 0.0196 µM in the assay with A498 renal, 0.0138 µM in the assay on HCC-2998 colon, 0.00577 µM in the assay on SW-620 colon and 0.000207 µM in the assay with NCI-H460 lung. Besides, the TGI stood at 0.0405 µM in the assay with M14 melanoma; 0.0328 µM with LOX IMVI melanoma; 0.198 µM with NCI/ADR-RES ovarian; 0.0638 µM in the assay on SF-539 CNS; 0.0343 µM with 786-0 renal; 0.0216 µM in the assay with COLO 205 colon. Further, the TGI was 0.0821 µM in the assay on A498 renal, 0.0441 µM in the assay with HCC-2998 colon, over 1 µM in the assay with SW-620 colon and 0.0864 µM in the assay with NCI-H460 lung.
